# Where two headings read alike, the source gives them in different places.
# Columns and labels:
# PDE 10a = molecular target: T1, PDE 10a (Homo sapiens, UniProt Q9Y233); experiment: In vitro enzyme inhibition assay (3H-cAMP scintillation proximity assay); assay type: biochemical; conditions: full-length recombinant PDE 10a, Sf9 cell lysate
# T1 construct: Full-length recombinant PDE 10a was expressed in Sf9 insect cells; made in house; host or cells: Sf9 insect cells (Bac-to-Bac baculovirus system); crude lysate supernatant used
# T1 sequence (Q9Y233 1-779 isoform Q9Y233-1): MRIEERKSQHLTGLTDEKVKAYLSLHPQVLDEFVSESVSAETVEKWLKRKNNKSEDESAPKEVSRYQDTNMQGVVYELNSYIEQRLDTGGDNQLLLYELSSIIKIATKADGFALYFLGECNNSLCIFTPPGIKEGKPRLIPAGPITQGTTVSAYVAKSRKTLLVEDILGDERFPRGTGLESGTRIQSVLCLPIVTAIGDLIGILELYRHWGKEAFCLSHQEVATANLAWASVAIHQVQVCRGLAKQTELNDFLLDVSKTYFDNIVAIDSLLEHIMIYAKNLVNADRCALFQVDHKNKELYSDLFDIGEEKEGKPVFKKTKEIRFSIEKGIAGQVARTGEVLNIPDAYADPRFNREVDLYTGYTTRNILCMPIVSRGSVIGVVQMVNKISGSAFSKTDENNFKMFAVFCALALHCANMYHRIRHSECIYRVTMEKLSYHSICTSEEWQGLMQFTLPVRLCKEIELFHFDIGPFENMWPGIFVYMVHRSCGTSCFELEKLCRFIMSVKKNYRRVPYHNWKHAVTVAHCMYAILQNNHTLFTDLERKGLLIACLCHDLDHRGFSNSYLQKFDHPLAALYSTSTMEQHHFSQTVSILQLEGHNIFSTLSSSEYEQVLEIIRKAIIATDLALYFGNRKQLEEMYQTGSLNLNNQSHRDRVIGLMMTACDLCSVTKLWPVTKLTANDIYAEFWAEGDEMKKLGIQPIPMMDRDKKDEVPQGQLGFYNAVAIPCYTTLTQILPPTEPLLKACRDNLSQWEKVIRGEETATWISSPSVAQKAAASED
# Procedure: Full-length recombinant PDE 10a was expressed in Sf9 insect cells (Invitrogen, Carlsbad, Calif., U.S.A.) using the Bac-to-Bac™ Baculovirus Expression System (Life Technologies, Gaithersburg, Md., U.S.A.). 48 hours post infection, cells were harvested and resuspended in 20 mL (per 1 L culture) Lysis Buffer (50 mM Tris-HCl, pH 7.4, 50 mM NaCl, 1 mM MgCl2, 1.5 mM EDTA, 10% glycerol plus 20 μL Protease Inhibitor Cocktail Set III [CalBiochem, La Jolla, Calif., U.S.A.]). Cells were sonicated at 4° C. for 1 minute and centrifuged at 10,000 RPM for 30 minutes at 4° C. Supernatant was removed and stored at −20° C. for activity assays.
# The test compounds were serially diluted in DMSO using two-fold dilutions to stock concentrations ranging typically from 200 μM to 1.6 μM (final concentrations in the assay range from 4 μM to 0.032 μM). 96-well assay isoplates (Wallac Inc., Atlanta, Ga., U.S.A.) were loaded with 50 μL dilution buffer per well (dilution buffer: 50 mM Tris/HCl pH 7.5, 8.3 mM MgCl2, 1.7 mM EDTA, 0.2% BSA). 2 μL of the serially diluted individual test compounds were added to individual wells,m followed by 25 μL of a 1:25,000 dilution of crude recombinant PDE 10a-containing Sf9 cell lysate (diluted in dilution buffer described above). The enzymatic assay was initiated by addition of 25 μL (0.025 μCi) ^3H cyclic AMP tracer [5′,8-^3H] adenosine 3′,5′-cyclic phosphate (Amersham Pharmacia Biotech., Piscataway, N.J., U.S.A.) that was diluted 1:1000 in assay buffer (assay buffer: 50 mM Tris/HCl pH 7.5, 8.3 mM MgCl2, 1.7 mM EDTA). Reactions were incubated at room temperature for 60 minutes and terminated by addition of 25 μL of 18 mg/mL Yttrium Scintillation Proximity Beads (Amersham Pharmacia Biotech., Piscataway, N.J., U.S.A.). Plates were sealed and incubated at room temperature for 60 minutes. Plates were read for 30 seconds/well using a Microbeta counter (Wallac Inc., Atlanta, Ga., U.S.A.). The IC50 values were determined by plotting compound concentration versus percent inhibition.
# [1] = system: MDA-MB-231 human breast carcinoma cells; experiment: In vitro proliferation inhibition assay (LDH activity, 72 hours); assay type: cell-based; conditions: MDA-MB-231 cells, read-out: % inhibition at a concentration of 10 μM
# Procedure: MDA-MB-231 human breast carcinoma cells (ATCC # HTB26) were cultured in standard growth medium (DMEM), supplemented with 10% heat-inactivated FBS, 10 mM HEPES, 2 mM glutamine, 100 U/mL penicillin, and 100 μg/mL streptomycin) at 37° C. in 5% CO2 (vol/vol) in a humidified incubator. Cells were plated at a density of 3000 cells per well in 100 μL growth medium in a 96 well culture dish. 24 hours after plating, LDH activity was determined using the Cytotox 96 Non-radioactive Cytotoxicity Kit (Promega, Madison, Wis., U.S.A.) to yield T0h LDH values. Briefly, cells were lysed with the addition of 200 μL of Lysis Buffer (included in the Promega Kit) and lysates were further diluted 1:50 in Lysis Buffer. 50 μL of diluted cell lysate were transferred to a fresh 96 well culture plate. The assay was initiated with the addition of 50 μL of substrate per well. Color development was allowed to proceed for 10-15 minutes. The assay was terminated with the addition of 50 μL of Stop Solution (included in Promega kit). Optical densities were determined spectrophotometrically at 490 nm in a 96 well plate reader (SpectraMax 250, Molecular Devices, Sunnyvale, Calif., U.S.A.).
# Test compounds were dissolved in 100% DMSO to prepare 10 mM stocks. Stocks were further diluted 1:250 in growth medium to yield working stocks of 40 μM test compound in 0.4% DMSO. Test compounds were serially diluted in growth medium containing 0.4% DMSO to maintain constant DMSO concentrations for all wells. 50 μL of fresh growth medium and 50 μL of diluted test compound were added to each culture well to give a final volume of 200 μL. The cells with and without individual test compounds were incubated for 72 hours at which time LDH activity was measured to yield T72h values. Optionally, the IC50 values can be determined with a least squares analysis program using compound concentration versus percent inhibition. % Inhibition=[1−(T72h test−T0h)/(T72h ctrl−T0h)]×100 wherein • T72h test=LDH activity at 72 hours in the presence of test compound, • T72h ctrl=LDH activity at 72 hours in the absence of test compound and • T0h=LDH activity at Time Zero
IC50 (PDE 10a; Examples of part a (Table 1a)),IC50 (PDE 10a; Examples of part b (Table 1b)),Compound,inhibition at 10 µM ([1]; Examples of part a (Table 2a)),inhibition at 10 µM ([1]; Examples of part b (Table 2b))
0.03 µM,,CCOC(=O)c1c(-c2cc(C)c(O)c(C)c2)c(C)n2c1-c1cc(OC)c(OC)cc1CC2 [(part a) 1],93%,
0.042 µM,,CCOC(=O)c1c(-c2cccc(N(C)C)c2)c(C)n2c1-c1cc(OC)c(OC)cc1CC2 [(part a) 10],93%,
0.11 µM,,CCOC(=O)c1c(-c2cccc(N)c2)c(C)n2c1-c1cc(OC)c(OC)cc1CC2 [(part a) 28],93%,
,0.11 µM,CCOC(=O)c1c(-c2cc(O)cc(O)c2)c(C)n2c1-c1cc(OC)c(OC)cc1CC2 [(part b) 1],,89%
